system: VCaP prostate cancer cell line; assay: Inhibition of mibolerone-induced VCaP cell proliferation (WST-1); assay type: cell-based; conditions: Homo sapiens, mibolerone-induced (usually 0.1 nM) proliferation, 4-5 days
Procedure: The IC50 value of the test compound for inhibition of mibolerone-induced VCaP cell proliferation was measured.
Cell Proliferation Assays
The ability of test compounds to inhibit prostate, cancer cell growth was studied by measuring inhibition of cell proliferation using androgen-sensitive VCaP prostate cancer cell line. […] Cell proliferation was measured using WST-1 Cell Proliferation Assay (Roche).

IC50 [nM] | Structure (SMILES)
490 | Cc1nc(C(=O)N[C@@H](C)Cn2ccc(-c3ccc(C#N)c(Cl)c3)n2)c[nH]1 [Example 248, (S)—N-{1-[3-(3-Chloro-4-cyanophenyl)-1H-pyrazol-1-yl]propan-2-yl}-2-methyl-1H-imidazole-4-carboxamide]

target: human AR (Homo sapiens (Human), UniProt P10275); assay: Agonism in AR overexpressing hAR/HEK293 cells, reporter gene assay; assay type: cell-based; conditions: % of testosterone-induced AR activity at 10 μM concentration
Sequence (P10275 whole entry): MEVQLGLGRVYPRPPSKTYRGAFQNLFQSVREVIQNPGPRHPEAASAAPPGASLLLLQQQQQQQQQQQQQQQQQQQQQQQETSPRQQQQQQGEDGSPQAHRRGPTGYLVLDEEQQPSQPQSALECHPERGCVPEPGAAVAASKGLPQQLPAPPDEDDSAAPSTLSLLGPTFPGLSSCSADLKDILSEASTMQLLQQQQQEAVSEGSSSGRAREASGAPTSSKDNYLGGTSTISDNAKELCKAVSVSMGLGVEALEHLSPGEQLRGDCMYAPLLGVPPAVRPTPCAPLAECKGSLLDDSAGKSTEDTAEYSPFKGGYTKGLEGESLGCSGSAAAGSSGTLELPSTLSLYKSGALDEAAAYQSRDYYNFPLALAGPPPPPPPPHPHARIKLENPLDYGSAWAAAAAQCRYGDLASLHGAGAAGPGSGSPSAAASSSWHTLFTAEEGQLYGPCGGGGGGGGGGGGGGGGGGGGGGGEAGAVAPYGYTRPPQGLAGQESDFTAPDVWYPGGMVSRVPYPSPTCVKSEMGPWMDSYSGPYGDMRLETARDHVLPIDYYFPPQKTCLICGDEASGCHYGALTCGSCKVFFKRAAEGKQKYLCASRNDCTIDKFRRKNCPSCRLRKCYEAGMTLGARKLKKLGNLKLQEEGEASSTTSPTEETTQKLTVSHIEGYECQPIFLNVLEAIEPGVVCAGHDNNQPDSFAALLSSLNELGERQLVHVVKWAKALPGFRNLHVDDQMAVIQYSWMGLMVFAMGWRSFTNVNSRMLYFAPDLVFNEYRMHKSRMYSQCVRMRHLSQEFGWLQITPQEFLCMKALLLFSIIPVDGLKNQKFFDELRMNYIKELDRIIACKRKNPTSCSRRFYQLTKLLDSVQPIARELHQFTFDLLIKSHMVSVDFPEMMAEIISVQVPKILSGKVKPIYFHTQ
Procedure: AR agonism of the test compound in AR overexpressing hAR/HEK293 cells was measured as % of testosterone-induced AR activity at 10 μM concentration,
Agonism of test compounds in AR overexpressing cells was measured by reporter gene assay in HEK293 cells stably transfected with an expression vector encoding full-length human AR and androgen responsive luciferase reporter gene construct. A clone expressing high levels of androgen receptor (5 times more than AR levels in AR-HEK293 cells) was selected to study agonism in AR overexpressing cells. To determine agonism, the cells were treated with increasing concentrations of the test compound. The final DMSO concentration was 1%. The test compounds were studied in triplicates and luciferase activity was determined as described above.

Structure (SMILES) | Agonism in AR overexpressing cells (%)
O=C(NCCc1ccc(-c2ccc(Cl)c(Cl)c2)o1)c1cc(C(=O)N2CCOCC2)n[nH]1 [Example 8, N-(2-(5-(3,4-dichlorophenyl)furan-2-yl)ethyl)-3-(morpholine-4-carbonyl)-1H-pyrazole-5-carboxamide] | 0
Cc1cc(-c2ccn(C[C@H](C)NC(=O)c3cc(-c4ccco4)n[nH]3)n2)ccc1C#N [Example 32, (S)—N-(1-(3-(4-cyano-3-methylphenyl)-1H-pyrazol-1-yl)propan-2-yl)-3-(furan-2-yl)-1H-pyrazole-5-carboxamide] | 39
CC(=O)c1cc(C(=O)N[C@@H](C)Cn2ccc(-c3ccc(C#N)c(Cl)c3)n2)[nH]n1 [Example 34, (S)-3-acetyl-N-(1-(3-(3-chloro-4-cyanophenyl)-1H-pyrazol-1-yl)propan-2-yl)-1H-pyrazole-5-carboxamide] | 39
N#Cc1ccc(-c2ccn(CCNC(=O)c3cc(-c4cccnc4)n[nH]3)n2)cc1C#N [Example 52, N-(2-(3-(3,4-dicyanophenyl)-1H-pyrazol-1-yl)ethyl)-3-(pyridin-3-yl)-1H-pyrazole-5-carboxamide] | 40
CC(O)c1cc(C(=O)N[C@@H](C)Cn2ccc(-c3ccc(C#N)c(Cl)c3)n2)[nH]n1 (stereo partly drawn) [Example 56, N—((S)-1-(3-(3-chloro-4-cyanophenyl)-1H-pyrazol-1-yl)-propan-2-yl)-3-(1-hydroxyethyl)-1H-pyrazole-5-carboxamide] | 27
CCc1noc(C(=O)N[C@@H](C)Cn2ccc(-c3ccc(C#N)c(Cl)c3)n2)n1 [Example 91, (S)—N-(1-(3-(3-chloro-4-cyanophenyl)-1H-pyrazol-1-yl)propan-2-yl)-3-ethyl-1,2,4-oxadiazole-5-carboxamide] | 18
Cc1nc(-c2cc(C(=O)N[C@@H](C)Cn3ccc(-c4ccc(C#N)c(Cl)c4)n3)n[nH]2)cs1 [Example 94, (S)—N-(1-(3-(3-chloro-4-cyanophenyl)-1H-pyrazol-1-yl)propan-2-yl)-5-(2-methylthiazol-4-yl)-1H-pyrazole-3-carboxamide] | 18
Cc1noc(C(=O)N[C@@H](C)Cn2ccc(-c3ccc(C#N)c(Cl)c3)n2)n1 [Example 103, (S)—N-(1-(3-(3-chloro-4-cyanophenyl)-1H-pyrazol-1-yl)propan-2-yl)-3-methyl-1,2,4-oxadiazole-5-carboxamide] | 19
CC(O)c1cc(C(=O)N[C@@H](C)Cn2ccc(-c3ccc(C#N)c(Cl)c3)n2)no1 (stereo partly drawn) [Example 124, N—((S)-1-(3-(3-chloro-4-cyanophenyl)-1H-pyrazol-1-yl)propan-2-yl)-5-(1-hydroxyethyl)isoxazole-3-carboxamide] | 5
C[C@H](Cn1ccc(-c2ccc(C#N)c(Cl)c2)n1)NC(=O)c1csc(N2CCOCC2)n1 [Example 132, (R)—N-(1-(3-(3-chloro-4-cyanophenyl)-1H-pyrazol-1-yl)propan-2-yl)-2-morpholinothiazole-4-carboxamide] | 21
Cc1c(-c2ccn(C[C@H](C)NC(=O)c3csc(C(C)O)n3)n2)ccc(C#N)c1Cl (stereo partly drawn) [Example 186, N—((S)-1-(3-(3-chloro-4-cyano-2-methylphenyl)-1H-pyrazol-1-yl)propan-2-yl)-2-(1-hydroxyethyl)thiazole-4-carboxamide] | >20
C[C@@H](Cn1ccc(-c2ccc(C#N)c(Cl)c2)n1)NC(=O)c1csc(-c2cn[nH]c2)n1 [Example 206, (S)—N-(1-(3-(3-chloro-4-cyanophenyl)-1H-pyrazol-1-yl)propan-2-yl)-2-(1H-pyrazol-4-yl)thiazole-4-carboxamide] | >20
CC(=O)c1cc(C(=O)NC[C@H](C)n2ccc(-c3cc(F)c(C#N)c(F)c3)n2)[nH]n1 [Example 219, (S)-3-acetyl-N-(2-(3-(4-cyano-3,5-difluorophenyl)-1H-pyrazol-1-yl)propyl)-1H-pyrazole-5-carboxamide] | 0
C[C@H](CNC(=O)c1csc(CC#N)n1)n1ccc(-c2cc(F)c(C#N)c(F)c2)n1 [Example 222, (R)—N-(2-(3-(4-cyano-3,5-difluorophenyl)-1H-pyrazol-1-yl)propyl)-2-(cyanomethyl)thiazole-4-carboxamide] | 20
Cc1nc(C(=O)N[C@@H](C)Cn2ccc(-c3cc(F)c(C#N)c(Cl)c3)n2)c[nH]1 [Example 249, (S)—N-{1-[3-(3-Chloro-4-cyano-5-fluorophenyl)-1H-pyrazol-1-yl]propan-2-yl}-2-methyl-1H-imidazole-4-carboxamide] | 34
C[C@@H](Cn1ccc(-c2cc(F)c(C#N)c(Cl)c2)n1)NC(=O)c1cn2cccnc2n1 [Example 324, (S)—N-(1-(3-(3-chloro-4-cyano-5-fluorophenyl)-1H-pyrazol-1-yl)propan-2-yl)imidazo[1,2-a]pyrimidine-2-carboxamide] | 16
C[C@@H](Cn1ccc(-c2ccc(C#N)c(Cl)c2)n1)NC(=O)c1[nH]nc2c1COCC2 [Example 338, (S)—N-(1-(3-(3-chloro-4-cyanophenyl)-1H-pyrazol-1-yl)propan-2-yl)-2,4,6,7-tetrahydropyrano[4,3-c]pyrazole-3-carboxamide] | 25

Reference: US9657003B2, “Androgen receptor modulating compounds” (ORION CORPORATION, priority 2009, dated 2017)
